Measurements published in patent publication US11161845B2, “Pyrrolopyridine-aniline compounds for treatment of dermal disorders” (Nflection Therapeutics, Inc., priority 2017, dated 2021).

Tests used:
[1] = Plasma LCMS compound levels, in vivo mouse model; design: species or system mice; settings: for concentration at 1 h / concentration at 2 h: male, C57BL/6J, mouse, plasma; for concentration at 1 h: 1 h after final application; for concentration at 2 h: 2 h after final application; for Plasma LCMS Compound Levels: pre-dose (16 h)
Procedure: These mice were also shaved weekly.
Week 4 (Experiment end): Skin and blood were collected right before the last morning dose (N=3), 1 hour (N=3 mice), and 2 hours (N=3 mice) after final application; Blood draw: Plasma compound levels (LCMS); Skin biopsy: formalin fixed for histology and p-ERK staining, flash frozen for Western analysis and skin compound levels (LCMS)
Compound level analysis: Liquid chromatography with mass spectrometry method (LCMS) was used to detect compound levels in the skin and plasma. Tissues were preprocessed prior to LCMS as follows. Tissues were minced and incubated with collagenase and then finally homogenized using the stainless steel beads prior to LCMS analysis. Calibration curves and a QC test were run with each assay.

[2] = target: T1, hERG channel protein (Homo sapiens, UniProt Q12809); experiment: hERG screening assay (Predictor hERG FP); assay type: binding; settings: fluorescence polarization tracer displacement
T1 construct: purchased ThermoFisher PV5365
Procedure: hERG screening was conducted using a procedure similar to the procedure described by Piper et al. (Piper, D. R. et al., Assay Drug Dev. Technol. 2008, 6(2):213-223). The Predictor hERG FP assay (available from ThermoFisher, cat. no. PV5365) is a homogenous, fluorescence polarization biochemical-based format utilizing a membrane fraction containing hERG channel protein (Predictor hERG Membrane) and a high affinity, red-fluorescent hERG channel ligand (Predictor hERG Tracer Red). When the Predictor hERG Tracer ligand is bound to the hERG channel it produces high fluorescence polarization values. Compounds that bind to the hERG channel protein (competitors) displace the Predictor hERG Tracer Red resulting in decreased fluorescence polarization values.
Test compounds were solubilized in DMSO at 100× (or greater) of the desired starting concentration. Screening was conducted with a final concentration of 1% DMSO. For 10-point titrations, 3-fold serial dilutions were performed from the starting concentrations. The assay buffer used was 25 mM HEPES (pH 7.5), 15 mM KCl, 1 mM MgCl2, and 0.05% Pluronic F-127 (available from Sigma-Aldrich).
Predictor hERG membranes were stored as a 2× stock at −80° C. Each membrane lot was titrated to identify the concentration of membranes required to obtain ˜70% bound tracer. Before setting up the assay the membranes were thawed in a 37° C. water bath and stored at room temperature. To avoid light scatter caused by large membrane particulates the membranes were sonicated until a homogeneous solution free of particulates is obtained. […]
384 well untreated low-volume polystyrene microplates (Corning Cat. #4511) were used for the assay. […] The assay plate was read on a fluorescence plate reader (Tecan Safire^2) and the data was analyzed. […]
Assay blank control wells consisted of Predictor hERG Membranes and Assay Buffer. The blank wells were used for background subtraction of raw parallel and perpendicular fluorescence values prior to the calculation of polarization values. […]

T1 sequence (Q12809 whole entry): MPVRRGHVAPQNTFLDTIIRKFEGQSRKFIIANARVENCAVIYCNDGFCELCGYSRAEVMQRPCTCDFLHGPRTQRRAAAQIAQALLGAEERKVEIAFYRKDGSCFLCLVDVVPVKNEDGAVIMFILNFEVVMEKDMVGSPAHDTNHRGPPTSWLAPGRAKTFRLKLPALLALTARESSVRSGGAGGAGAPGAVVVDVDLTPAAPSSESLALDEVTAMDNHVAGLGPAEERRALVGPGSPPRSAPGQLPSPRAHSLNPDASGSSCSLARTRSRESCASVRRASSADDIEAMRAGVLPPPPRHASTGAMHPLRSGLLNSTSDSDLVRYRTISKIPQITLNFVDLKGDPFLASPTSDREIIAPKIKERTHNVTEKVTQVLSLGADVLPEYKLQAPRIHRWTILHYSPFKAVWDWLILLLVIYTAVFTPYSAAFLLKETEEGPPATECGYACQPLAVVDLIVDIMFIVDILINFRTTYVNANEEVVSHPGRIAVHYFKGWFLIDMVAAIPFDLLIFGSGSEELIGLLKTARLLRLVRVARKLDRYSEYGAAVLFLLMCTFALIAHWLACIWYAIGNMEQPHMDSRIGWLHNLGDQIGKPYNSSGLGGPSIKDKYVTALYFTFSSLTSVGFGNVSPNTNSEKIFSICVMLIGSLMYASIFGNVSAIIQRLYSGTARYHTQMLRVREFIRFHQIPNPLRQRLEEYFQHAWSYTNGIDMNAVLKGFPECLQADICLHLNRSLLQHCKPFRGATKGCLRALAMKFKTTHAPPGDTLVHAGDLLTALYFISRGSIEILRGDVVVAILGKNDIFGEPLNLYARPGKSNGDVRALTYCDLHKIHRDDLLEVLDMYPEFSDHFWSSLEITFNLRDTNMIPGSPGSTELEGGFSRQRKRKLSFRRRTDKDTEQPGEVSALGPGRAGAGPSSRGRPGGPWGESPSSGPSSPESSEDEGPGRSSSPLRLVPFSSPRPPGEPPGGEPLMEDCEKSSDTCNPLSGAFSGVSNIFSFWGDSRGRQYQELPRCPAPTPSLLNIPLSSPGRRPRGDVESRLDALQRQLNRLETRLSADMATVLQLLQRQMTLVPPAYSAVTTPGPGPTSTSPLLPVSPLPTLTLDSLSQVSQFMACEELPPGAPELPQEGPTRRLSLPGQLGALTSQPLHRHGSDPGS

Cn1c(Nc2ccc(I)cc2F)c(C(=O)NOCCO)c2cccnc21 [Example 2, 2-((2-Fluoro-4-iodophenyl)amino)—N-(2-hydroxyethoxy)-1-methyl-1H-pyrrolo[2,3-b]pyridine-3-carboxamide]
concentration at 1 h ([1]; topical 0.1%): 174 ng/mL
concentration at 2 h ([1]; topical 0.1%): 37.9 ng/mL
concentration at 1 h ([1]; topical 0.5%): 1040 ng/mL
concentration at 2 h ([1]; topical 0.5%): 102 ng/mL
concentration at 1 h ([1]; topical 1%): 1020 ng/mL
concentration at 2 h ([1]; topical 1%): 262 ng/mL
Plasma LCMS Compound Levels ([1]; topical 0.1%): 1.18 ng/mL
Plasma LCMS Compound Levels ([1]; topical 0.5%): 4.78 ng/mL
Plasma LCMS Compound Levels ([1]; topical 1%): 24.98 ng/mL
IC50 [2]: > 30 µM
